Laboratory results from PubChem BioAssay (NCI).
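The concentration for 50% growth inhibition is given as GI50. TGI marks complete inhibition of growth.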

How the values were obtained:
Assay in all cases: NCI tumour cell line growth inhibition, 384-well format
[1] = tested on: MALME-3M melanoma
[2] = tested on: OVCAR-8 ovarian
[3] = tested on: NCI-H522 lung
[4] = tested on: UO-31 renal
[5] = tested on: HCC-2998 colon
[6] = tested on: SK-OV-3 ovarian
[7] = tested on: HOP-62 NSCLC
[8] = tested on: HT29 colon
[9] = tested on: DU-145 prostate
[10] = tested on: NCI-H226 lung
[11] = tested on: LOX IMVI melanoma
[12] = tested on: 786-0 renal
[13] = tested on: UACC-257 melanoma
[14] = tested on: UACC-62 melanoma
[15] = tested on: ACHN renal
[16] = tested on: MDA-MB-435 melanoma
[17] = tested on: MDA-MB-468 breast
[18] = tested on: A498 renal
[19] = tested on: U251 glioblastoma
[20] = tested on: CCRF-CEM leukemia
[21] = tested on: CAKI-1 renal
[22] = tested on: OVCAR-4 ovarian
[23] = tested on: NCI-H460 NSCLC
[24] = tested on: MOLT-4 leukemia
[25] = tested on: M14 melanoma
[26] = tested on: COLO 205 colon
[27] = tested on: MDA-MB-231 breast
[28] = tested on: SF-268 CNS
[29] = tested on: EKVX NSCLC
[30] = tested on: SK-MEL-28 melanoma

In the case of C[C@H]1CN(C2COC2)CCN1c1ccc(Nc2cc(-c3ccnc(N4CCn5c(cc6c5CC(C)(C)C6)C4=O)c3CO)cn(C)c2=O)nc1, the TGI [1] is reported as greater than 54 µM, the GI50 [2] is reported as 20.9 µM and the TGI [2] is reported as greater than 60.7 µM. It also gave a GI50 [3] of 12.7 µM, a TGI [3] of 37.2 µM and a GI50 [4] of 16.2 µM. For the same compound, the TGI [4] was 29.8 µM, the GI50 [5] was 3.62 µM and the TGI [5] was 14.5 µM. It also gave a GI50 [6] of 16.3 µM, a TGI [6] of 35.7 µM and a GI50 [7] of 17.8 µM. The TGI [7] was greater than 48.1 µM, the GI50 [8] was 20.5 µM and the TGI [8] was greater than 50.1 µM. It also gave a GI50 [9] of 30.8 µM, a TGI [9] of 97.1 µM and a GI50 [10] of 11.8 µM. For the same compound, the TGI [10] was 28.4 µM, the GI50 [11] was 17.7 µM and the TGI [11] was 31.7 µM. It also gave a GI50 [12] of 21.8 µM, a TGI [12] greater than 52.2 µM and a GI50 [13] of 16.4 µM. For the same compound, the TGI [13] was 34.5 µM, the GI50 [14] was 14.6 µM and the TGI [14] was greater than 54.6 µM. The GI50 [15] was 19.9 µM, the TGI [15] was greater than 54.2 µM and the GI50 [16] was 26.2 µM. For the same compound, the TGI [16] was greater than 55.9 µM, the GI50 [17] was 14.5 µM and the TGI [17] was 32.8 µM. For the same compound, the GI50 [18] was 14.3 µM, the TGI [18] was 28.2 µM and the GI50 [19] was 41.4 µM. It also gave a TGI [19] greater than 100 µM, a GI50 [20] of 3.36 µM and a TGI [20] of 13.4 µM. The GI50 [21] was 17.8 µM, the TGI [21] was greater than 48.1 µM and the GI50 [22] was 13.3 µM. The TGI [22] was greater than 51.6 µM, the GI50 [23] was 37.7 µM and the TGI [23] was greater than 100 µM. It also gave a GI50 [24] of 0.731 µM, a TGI [24] of 1.93 µM and a GI50 [25] of 35 µM. The TGI [25] was greater than 54.7 µM, the GI50 [26] was 19.8 µM and the TGI [26] was 39.8 µM. It also gave a GI50 [27] of 6.46 µM, a TGI [27] of 20.4 µM and a GI50 [28] of 16.8 µM. For the same compound, the TGI [28] was 35.4 µM, the GI50 [29] was 76.9 µM and the TGI [29] was greater than 100 µM. The GI50 [30] was greater than 36.9 µM and the TGI [30] was greater than 53 µM.
